# Assays:
# Format in all cases: physicochemical
# [1] = SANS form factor fits (core-shell cylinder); details: 3 wt% in D2O, 25°C, long cylindrical shell form factor; note: values in Å
# Protocol: Measurements were performed using the LOQ instrument at ISIS Neutron and Muon Source, Oxfordshire, UK. LOQ operates in time‐of‐flight mode, with a wavelength range from 2.7 to 10.5 Å. Two detectors recorded simultaneously small and wide scattering merged in a typical range of wavenumbers q = 0.006 Å^−1 to 1.2 Å^−1. The main detector was fixed at 4 m from the sample, and the size of the beam was 8 mm diameter at the sample position. The samples were placed in quartz cuvettes and arranged on a multislot sample changer with temperature controlled by a thermal bath at 25°C. The background was subtracted and the scattering intensity normalized to the absolute scale cross calibrating with a polystyrene standard. Data reduction was performed using Mantid.
# Cryo‐TEM was used to probe potential aggregation in solution above the CAC (3 wt% aqueous solution). […] The presence of such structures was also confirmed by SAXS and SANS data (Figure 3), which reveal form factor features that can be fitted using a core‐shell cylinder form factor, consistent with extended fibril structures. The cylinder radius is 25 Å, which is approximately equal to the estimated length of the molecule considering the lipid chain plus a pentapeptide in a β‐sheet conformation. […]
# [2] = SAXS form factor fits (core-shell cylinder, generalized Gaussian coil); note: values in Å
# Protocol: SAXS experiments were performed on beamline B21 [28] at Diamond (Didcot, UK). The sample solution was loaded into the 96‐well plate of an EMBL BioSAXS robot and then injected via an automated sample exchanger into a quartz capillary (1.8‐mm internal diameter) in the X‐ray beam. The quartz capillary was enclosed in a vacuum chamber, to avoid parasitic scattering. After the sample was injected into the capillary and reached the X‐ray beam, the flow was stopped during the SAXS data acquisition. Beamline B21 was operated with a fixed camera length (3.9 m) and fixed energy (12.4 keV). The images were captured using a PILATUS 2M detector. Data processing was performed using dedicated beamline software ScÅtter.
# Cryo‐TEM was used to probe potential aggregation in solution above the CAC (3 wt% aqueous solution). […] The presence of such structures was also confirmed by SAXS and SANS data (Figure 3), which reveal form factor features that can be fitted using a core‐shell cylinder form factor, consistent with extended fibril structures. The cylinder radius is 25 Å, which is approximately equal to the estimated length of the molecule considering the lipid chain plus a pentapeptide in a β‐sheet conformation. […] For the SAXS data, it was necessary to include a contribution in the fits from unaggregated peptide, which gives rise to scattering at high q, described using a generalized Gaussian coil form factor (generalized refers to allowing the Flory exponent for the coil to vary from the value ν = 0.5 for an unperturbed coil). SANS data for 3 wt% solutions of lipoyl‐KTTKS in D2O can be fitted to a core‐shell cylinder form factor, consistent with SAXS, with fit parameters listed in Table S1. It was not necessary to allow for unaggregated monomer in fitting the SANS data, which may be because of the higher background and/or altered scattering contrast compared with SAXS. The cylinder radius and shell thickness obtained from the fits to the SANS data are in excellent agreement with the parameters obtained from the SAXS fit.
# (§1) The ring‐opening of the lipoyl moiety can be achieved under reductive conditions. We examined the effect of chemical reduction on the self‐assembled structures of lipoyl‐KTTKS using TCEP [tris(2‐carboxyethyl)phosphine] as reductant. […] The SAXS data in Figure 3a show a considerable reduction in scattering intensity after addition of TCEP and the SANS profile in Figure 3b is barely above background after addition of TCEP. The SAXS data can be described using a form factor for monomer scattering with a power‐law intensity function at low q to account for a small fraction of irregular aggregates. The disruption of the fibrils upon TCEP addition was also confirmed by cryo‐TEM (images shown in Figure S1) because no aggregate structures were observed after addition of TCEP. Circular dichroism (CD) spectra shown in Figure 4 are characterized by a negative minimum in the CD spectrum at 196 nm along with the absence of defined features at higher wavelength, characteristic of a primarily disordered conformation. However, taking the difference between the CD spectra for lipoyl‐KTTKS without and with TCEP produces a spectrum (green spectrum in Figure 5) with a minimum near 215 nm, characteristic of β‐sheet structure. This is consistent with the observation that lipoyl‐KTTKS forms fibril‐like structures above a CAC detected by ThT binding to β‐sheet structure and as observed by cryo‐TEM, SAXS and SANS.
# Table S1. SANS and SAXS data fitted parameters. Data fitted using SASfit,^[1-2] using a long cylindrical shell form factor model, with allowance for monomers via a Generalized Gaussian coil factor for SAXS data. […]
# [3] = Chemical reduction with TCEP, effect on self-assembled structures; details: 3 wt% with 2.6 wt% TCEP, SAXS and SANS; cryo-TEM 1 wt% + 0.37 wt% TCEP
# Excerpt: as §1, with “However, taking the difference between the CD spectra for lipoyl‐KTTKS without and with TCEP produces a spectrum (green spectrum in Figure 5) with a minimum near 215 nm, characteristic of β‐sheet structure.” left out, “SANS. […]” for “SANS.”
# [4] = CAC assay with fluorescent probe thioflavin T (ThT); details: ThT fluorescence peak intensity (λem = 448 nm) vs concentration
# Protocol: Before considering biocompatibility and bioactivity of lipoyl‐KTTKS, we examined whether this lipopeptide has a critical aggregation concentration (CAC) above which it forms self‐assembled aggregate structures. Based on our previous work on KTTKS‐lipopeptides, β‐sheet formation of lipoyl‐KTTKS is likely to be favoured. Therefore a CAC assay using the fluorescent probe thioflavin T (ThT) which is sensitive to β‐sheet formation was performed. The ThT fluorescence peak intensity was monitored as a function of concentration, and the results are shown in Figure 1 and indicate a CAC value (0.5 ± 0.1) wt% from the intersection of the straight lines at low and high concentrations, or (0.67 ± 0.06) wt% as the midpoint of a fitted Boltzmann‐type sigmoidal function: I=A2+A1−A2/1+expc−c1/2/σ
# FIGURE 1 CAC assay plotting fluorescence intensity of ThT (λ em = 448 nm) as a function of concentration. […] The black lines provide a linear intercept estimate of CAC.
# Here, I is the fluorescence intensity (at λ em = 448 nm), A 1 and A 2 are constants, c is the lipopeptide concentration, c 1/2 is the mid‐point concentration, and σ is the width parameter.
# [5] = 3 wt%, long cylindrical shell form factor
# [6] = 3 wt%, long cylindrical shell form factor, listed as lipoyl-KTTKS
substance,measurement,setting,value
lipoyl‐KTTKS [peptide amphiphile comprising a conjugate of lipoic acid to pentapeptide KTTKS],L length,[1],800 Å
same,t shell thickness,[1],9.10 Å
same,Rg radius of gyration (monomer),"[2]; 3 wt% with 2.6 wt% TCEP, generalized Gaussian coil form factor",6.3 Å
same,Rg radius of gyration (unaggregated peptide),"[2]; 3 wt%, generalized Gaussian coil form factor",22.0 Å
same,L length,[2]; [5],987 Å
same,Ro outer radius (Gaussian polydispersity ΔR),[2]; [5],25 Å
same,t shell thickness,[2]; [5],10 Å
same,Ro outer radius (Gaussian polydispersity ΔR),[2]; [6],25.0 ± 25.0 Å
same,t shell thickness,[2]; [6],10.0 Å
same,Effect of addition of TCEP on self-assembled structures,[3],disrupts the fibril structures
same,CAC (critical aggregation concentration) from intersection of straight lines,[4]; intersection of straight lines at low and high concentrations,0.5 ± 0.1 wt%
same,CAC as midpoint of fitted Boltzmann-type sigmoidal function,[4]; midpoint c1/2 of sigmoidal fit,0.67 ± 0.06 wt%

# Reference: article PMC11794677, “Self‐Assembly of a Conjugate of Lipoic Acid With a Collagen‐Stimulating Pentapeptide Showing Cytocompatibility and Wound Healing Properties, and Chemical and Photolytic Disassembly” (Journal of Peptide Science, 2025)
